Assay results from patent US9783537B2, “3-(4-ethylnylphenyl) pyridopyrimidinone compounds and process for preparation thereof useful as potential anticancer agents” (Council of Scientific & Industrial Research, priority 2013, dated 2017).
Read-outs that look alike come from different tables or passages of the source.

What was measured:
HL-60(TB) = assay: SRB 48 h growth assay, Leukemia HL-60(TB); type: cell-based, human
K-562 = assay: SRB 48 h growth assay, Leukemia K-562; type: cell-based, human
RPMI-8226 = assay: SRB 48 h growth assay, Leukemia RPMI-8226; type: cell-based, human; conditions: RPMI-8226, Leukemia
A549/ATCC = assay: SRB 48 h growth assay, Non-small Cell Lung A549/ATCC; type: cell-based, human
NCI-H226 = assay: SRB 48 h growth assay, Non-small Cell Lung NCI-H226; type: cell-based, human
NCI-H522 = assay: SRB 48 h growth assay, Non-small Cell Lung NCI-H522; type: cell-based, human
SW-620 = assay: SRB 48 h growth assay, Colon SW-620; type: cell-based, human; conditions: SW-620, Colon
SNB-75 = assay: SRB 48 h growth assay, CNS SNB-75; type: cell-based, human; conditions: SNB-75, CNS
LOX IMVI = assay: SRB 48 h growth assay, Melanoma LOX IMVI; type: cell-based, human
M14 = assay: SRB 48 h growth assay, Melanoma M14; type: cell-based, human
MDA-MB-435 = assay: SRB 48 h growth assay, Melanoma MDA-MB-435; type: cell-based, human; conditions: MDA-MB-435, Melanoma
SK-MEL-5 = assay: SRB 48 h growth assay, Melanoma SK-MEL-5; type: cell-based, human; conditions: SK-MEL-5, Melanoma
UACC-62 = assay: SRB 48 h growth assay, Melanoma UACC-62; type: cell-based, human; conditions: UACC-62, Melanoma
SK-OV-3 = assay: SRB 48 h growth assay, Ovarian SK-OV-3; type: cell-based, human; conditions: SK-OV-3, Ovarian
ACHN = assay: SRB 48 h growth assay, Renal ACHN; type: cell-based, human
TK-10 = assay: SRB 48 h growth assay, Renal TK-10; type: cell-based, human; conditions: TK-10, Renal
PC-3 = assay: SRB 48 h growth assay, Prostate PC-3; type: cell-based, human; conditions: PC-3, Prostate
DU-145 = assay: SRB 48 h growth assay, Prostate DU-145; type: cell-based, human; conditions: DU-145, Prostate
MCF7 = assay: SRB 48 h growth assay, Breast MCF7; type: cell-based, human
MDA-MB-231/ATCC = assay: SRB 48 h growth assay, Breast MDA-MB-231/ATCC; type: cell-based, human
BT-549 = assay: SRB 48 h growth assay, Breast BT-549; type: cell-based, human; conditions: BT-549, Breast
MDA-MB-468 = assay: SRB 48 h growth assay, Breast MDA-MB-468; type: cell-based, human; conditions: MDA-MB-468, Breast
[1] = tested on: six leukemia cancer cell lines (CCRF-CEM, HL-60, K-562, MOLT-4, SR and RPMI-8226); assay: in vitro anticancer activity, leukemia panel; type: cell-based; conditions: Homo sapiens, exposure at least 48 h, read-out: GI50, range over panel
[2] = tested on: seven colon cancer cell line (COLO 205, HCC-2998, HCT-116, HCT-15, HT29, KM12 and SW-620); assay: in vitro anticancer activity, colon panel; type: cell-based; conditions: Homo sapiens; seven colon cancer cell lines, exposure at least 48 h; read-out: GI50, range over panel
[3] = tested on: six CNS cancer cell line (SF-268, SF-295, SF-539, SNB-19, SNB-75 and U251); assay: in vitro anticancer activity, CNS panel; type: cell-based; conditions: Homo sapiens; six CNS cancer cell lines, exposure at least 48 h; read-out: GI50, range over panel
[4] = in vitro anticancer activity, melanoma panel; type: cell-based; conditions: Homo sapiens; nine melanoma cell lines, exposure at least 48 h; read-out: GI50, range over panel
[5] = Homo sapiens, read-out: Growth Inhibition GI50
[6] = Homo sapiens, read-out: Log10 GI50 (converted)
[7] = Homo sapiens, read-out: Log10 LC50 (converted)

C#Cc1ccc(-n2c(/C=C/c3ccc(O)cc3)nc3ncccc3c2=O)cc1 [4b, (E)-3-(4-Ethynylphenyl)-2-(4-hydroxystyryl)pyrido[2,3-d]pyrimidin-4(3H)-one]
Log10 TGI50 (HL-60(TB)): −4.52 | GI50 (HL-60(TB); [5]): 3.2 µM | GI50 (HL-60(TB); [6]): 3.24 µM | CC50 (HL-60(TB); [7]): > 100 µM | GI50 (K-562; Homo sapiens, K562, K-562, Leukemia, read-out: Growth Inhibition GI50): 4.33 µM | GI50 (K-562; Homo sapiens, K562, K-562, Leukemia, read-out: Log10 GI50 (converted)): 4.37 µM | CC50 (K-562; Homo sapiens, K562, K-562, Leukemia, read-out: Log10 LC50 (converted)): > 100 µM | Log10 TGI50 (K-562; K-562, Leukemia): >−4.00 | GI50 (RPMI-8226; [5]): 3.41 µM | GI50 (RPMI-8226; [6]): 3.39 µM | CC50 (RPMI-8226; [7]): > 100 µM | Log10 TGI50 (RPMI-8226): >−4.00 | Log10 TGI50 (A549/ATCC): >−4.00 | GI50 (A549/ATCC; [5]): 4.74 µM | GI50 (A549/ATCC; [6]): 4.79 µM | CC50 (A549/ATCC; [7]): > 100 µM | Log10 TGI50 (NCI-H226): −4.88 | GI50 (NCI-H226; [5]): 2.58 µM | GI50 (NCI-H226; [6]): 2.57 µM | LC50 (NCI-H226; [7]): > 100 µM | Log10 TGI50 (NCI-H522): −5.22 | GI50 (NCI-H522; [5]): 2 µM | GI50 (NCI-H522; [6]): 2 µM | CC50 (NCI-H522; [7]): > 100 µM | GI50 (SW-620; [5]): 3.55 µM | GI50 (SW-620; [6]): 3.55 µM | CC50 (SW-620; [7]): > 100 µM | Log10 TGI50 (SW-620): >−4.00 | GI50 (SNB-75; [5]): 0.94 µM | GI50 (SNB-75; [6]): 0.955 µM | CC50 (SNB-75; [7]): > 100 µM | Log10 TGI50 (SNB-75): −4.49 | Log10 TGI50 (LOX IMVI): >−4.00 | GI50 (LOX IMVI; [5]): 5.35 µM | GI50 (LOX IMVI; [6]): 5.37 µM | CC50 (LOX IMVI; [7]): > 100 µM | Log10 TGI50 (M14): −5.09 | GI50 (M14; [5]): 2.7 µM | GI50 (M14; [6]): 2.69 µM | CC50 (M14; [7]): > 100 µM | GI50 (MDA-MB-435; [5]): 1.6 µM | GI50 (MDA-MB-435; [6]): 1.58 µM | CC50 (MDA-MB-435; [7]): > 100 µM | Log10 TGI50 (MDA-MB-435): −5.39 | GI50 (SK-MEL-5; [5]): 2.24 µM | GI50 (SK-MEL-5; [6]): 2.24 µM | CC50 (SK-MEL-5; [7]): > 100 µM | Log10 TGI50 (SK-MEL-5): −5.13 | GI50 (UACC-62; [5]): 4.01 µM | GI50 (UACC-62; [6]): 3.98 µM | CC50 (UACC-62; [7]): > 100 µM | Log10 TGI50 (UACC-62): >−4.00 | GI50 (SK-OV-3; [5]): 3.38 µM | GI50 (SK-OV-3; [6]): 3.39 µM | CC50 (SK-OV-3; [7]): > 100 µM | Log10 TGI50 (SK-OV-3): −4.54 | Log10 TGI50 (ACHN): >−4.00 | GI50 (ACHN; [5]): 6.31 µM | GI50 (ACHN; [6]): 6.31 µM | CC50 (ACHN; [7]): > 100 µM | GI50 (TK-10; [5]): 8.78 µM | GI50 (TK-10; [6]): 8.71 µM | CC50 (TK-10; [7]): > 100 µM | Log10 TGI50 (TK-10): −4.16 | GI50 (PC-3; [5]): 3.87 µM | GI50 (PC-3; [6]): 3.89 µM | CC50 (PC-3; [7]): > 100 µM | Log10 TGI50 (PC-3): −4.32 | Log10 TGI50 (DU-145): −4.12 | GI50 (DU-145; [5]): 4.1 µM | GI50 (DU-145; [6]): 4.07 µM | CC50 (DU-145; [7]): > 100 µM | Log10 TGI50 (MCF7): >−4.00 | GI50 (MCF7; [5]): 3.04 µM | GI50 (MCF7; [6]): 3.02 µM | CC50 (MCF7; [7]): > 100 µM | Log10 TGI50 (MDA-MB-231/ATCC): >−4.00 | GI50 (MDA-MB-231/ATCC; [5]): 11.4 µM | GI50 (MDA-MB-231/ATCC; [6]): 11.5 µM | CC50 (MDA-MB-231/ATCC; [7]): > 100 µM | Log10 TGI50 (BT-549): −4.06 | GI50 (BT-549; [5]): 7.51 µM | GI50 (BT-549; [6]): 7.59 µM | CC50 (BT-549; [7]): > 100 µM | GI50 (MDA-MB-468; [5]): 2.31 µM | GI50 (MDA-MB-468; [6]): 2.29 µM | CC50 (MDA-MB-468; [7]): > 100 µM | Log10 TGI50 (MDA-MB-468): −5.15 | GI50 [1]: 3.58 to 5.55 µM | GI50 [2]: 3.19 to 27.5 µM | GI50 [3]: 3.88 to 16.2 µM | GI50 [4]: 1.78 to 34.6 µM
